{"source": "paper PMC5218480", "about": "(PLoS ONE, 2017)", "tested_on": "MV-4-11 cells", "experiment": "Gene expression microarray analysis (Affymetrix PrimeView) and GSEA", "format": "cell-based, human", "conditions": "gene C12orf56; ACY-1035 1 mM; LIST F", "data": [{"smiles": "Nc1ccc(-c2cccs2)cc1NC(=O)c1ccc2c(c1)cc(C1CC1)n2CCN1CCOCC1", "note": "[ACY-1035]", "values": [{"measurement": "RFU, C12orf56 (ProbeSet 11735607_a_at)", "value": 71.19, "unit": "RFU"}]}]}
